Experimental data from US9073855B2, “BCL-2 selective apoptosis-inducing agents for the treatment of cancer and immune diseases” (AbbVie Inc., priority 2008, dated 2015).

What was measured:
[1] = tested on: FL5.12/Bcl-2 cells; assay: FL5.12/Bcl-2 cell viability assay under IL-3 withdrawal (CellTitre Glo); format: cell-based, murine; conditions: Mus musculus, IL-3 withdrawn 48 hrs, then 24 hrs with compound
Source text: FL5.12 is an IL-3 dependent prolymphocytic murine cell line that undergoes apoptosis upon IL-3 withdrawal as a result of the upregulation of pro-apoptotic Bcl-2 proteins such as Bim and Puma. Stable overexpression of anti-apoptotic Bcl-2 protein (FL5.12/Bcl-2) protects against apoptosis induced by IL-3 withdrawal by sequestration of Bim and Puma. […] The ability of compounds to kill FL5.12/Bcl-2 cells upon IL-3 withdrawal is a direct measure of the compounds' ability to inhibit anti-apoptotic Bcl-2 protein function.
Wild type FL5.12/Bcl-2 overexpressing stable transfectants were cultured in RPMI-1640 supplemented with 2 mM L-glutamine, 10% FBS, 1 mM sodium pyruvate, 2 mM HEPES, 1% penicillin/streptomycin (Invitrogen), 57 μM β-ME, and 10% WEHI-3B conditioned medium (source of IL-3) and maintained at 37° C. containing 5% CO2. 1×10^6 cells/ml were washed 1×PBS and resuspended in medium not supplemented with 10% WEHI-3B for 48 hrs prior to cytotoxicity assays. Cells were then treated for an additional 24 hrs in the presence of various concentrations of the indicated compounds. Cell viability was assessed by CellTitre Glo assay (Promega Corp.) according to the manufacturer's recommendations.

[2] = target: GST-Bcl-XL (Homo sapiens, UniProt Q07817); assay: TR-FRET binding assay, GST-Bcl-XL with F-Bak peptide probe; conditions: TR-FRET Binding Affinity
Sequence of GST-Bcl-XL (Q07817 whole entry, the tested form may be a part): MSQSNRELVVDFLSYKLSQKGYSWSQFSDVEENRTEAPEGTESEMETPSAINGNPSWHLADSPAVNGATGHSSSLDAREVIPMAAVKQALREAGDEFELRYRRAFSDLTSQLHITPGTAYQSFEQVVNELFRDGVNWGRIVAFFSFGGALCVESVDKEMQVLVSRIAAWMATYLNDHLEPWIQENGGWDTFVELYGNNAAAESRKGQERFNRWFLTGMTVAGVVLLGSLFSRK
How it was run: (§1)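 Competitive TR-FRET: GST-fusion protein, fluorescent Bak peptide probe and Tb-labelled anti-GST antibody incubated with compound dilution series (starting 50 μM as 2× stock, 10% DMSO) for 3 h at RT. Excitation 340/35 nm; Ki derived via Wang's exact competitive-binding equation.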

[3] = target: GST-Bcl-2 (Homo sapiens, UniProt P10415); assay: TR-FRET binding assay, GST-Bcl-2 with F-Bak peptide probe; conditions: for Ki: TR-FRET Binding Affinity
Sequence of GST-Bcl-2 (P10415 whole entry): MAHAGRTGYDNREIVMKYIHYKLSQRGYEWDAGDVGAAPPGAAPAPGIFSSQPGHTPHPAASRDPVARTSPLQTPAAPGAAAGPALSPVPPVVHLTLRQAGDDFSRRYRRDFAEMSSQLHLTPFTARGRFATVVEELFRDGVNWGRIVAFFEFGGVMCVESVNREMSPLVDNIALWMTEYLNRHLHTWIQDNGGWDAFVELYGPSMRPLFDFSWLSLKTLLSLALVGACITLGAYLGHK
How it was run: as §1

[4] = GST-Bcl-XL, F-Bak peptide probe

Structure (SMILES): CC(c1ccccc1-c1ccc(Cl)cc1)N1CCN(c2ccc(C(=O)NS(=O)(=O)c3ccc(NCC4CCOCC4)c([N+](=O)[O-])c3)c(Oc3cccc4[nH]ccc34)c2)CC1 (stereo not drawn) [Example 175, 4-{4-[1-(4′-chloro-1,1′-biphenyl-2-yl)ethyl]piperazin-1-yl}-2-(1H-indol-4-yloxy)-N-({3-nitro-4-[(tetrahydro-2H-pyran-4-ylmethyl)amino]phenyl}sulfonyl)benzamide]
- EC50 [1]: 6.2 nM
- Ki [2, 4]: > 660 nM
- Ki ([3]; GST-Bcl-2, F-Bak peptide probe): 0.1 nM

Structure (SMILES): CC1(C)CCC(CN2CCN(c3ccc(C(=O)NS(=O)(=O)c4ccc(NCC5(N)CCOCC5)c([N+](=O)[O-])c4)c(Oc4cccc5[nH]ccc45)c3)CC2)=C(c2ccc(Cl)cc2)C1 [Example 176, N-[(4-{[(4-aminotetrahydro-2H-pyran-4-yl)methyl]amino}-3-nitrophenyl)sulfonyl]-4-(4-{[2-(4-chlorophenyl)-4,4-dimethylcyclohex-1-en-1-yl]methyl}piperazin-1-yl)-2-(1H-indol-4-yloxy)benzamide]
- EC50 [1]: 58.5 nM
- Ki [2, 4]: 32 nM
- Ki ([3]; GST-Bcl-2, F-Bak peptide probe): 0.18 nM

Structure (SMILES): CC1(C)CCC(CN2CCN(c3ccc(C(=O)NS(=O)(=O)c4ccc(NCC5CCOCC5)c([N+](=O)[O-])c4)c(Oc4ccc5[nH]ccc5c4)c3)CC2)=C(c2ccc(Cl)cc2)C1 [Example 177, 4-(4-{[2-(4-chlorophenyl)-4,4-dimethylcyclohex-1-en-1-yl]methyl}piperazin-1-yl)-2-(1H-indol-5-yloxy)-N-({3-nitro-4-[(tetrahydro-2H-pyran-4-ylmethyl)amino]phenyl}sulfonyl)benzamide]
- EC50 [1]: 19.7 nM
- Ki [2, 4]: 132 nM
- Ki ([3]; GST-Bcl-2, F-Bak peptide probe): 0.165 nM

Structure (SMILES): CC1(C)CCC(CN2CCN(c3ccc(C(=O)NS(=O)(=O)c4ccc(N[C@H]5CC[C@H](N6CCOCC6)CC5)c([N+](=O)[O-])c4)c(Oc4ccc5[nH]ccc5c4)c3)CC2)=C(c2ccc(Cl)cc2)C1 [Example 178, Trans-4-(4-{[2-(4-chlorophenyl)-4,4-dimethylcyclohex-1-en-1-yl]methyl}piperazin-1-yl)-2-(1H-indol-5-yloxy)-N-({4-[(4-morpholin-4-ylcyclohexyl)amino]-3-nitrophenyl}sulfonyl)benzamide]
- EC50 [1]: 18.6 nM
- Ki [2, 4]: > 660 nM

Structure (SMILES): COCCNc1ccc(S(=O)(=O)NC(=O)c2ccc(N3CCN(CC4=C(c5ccc(Cl)cc5)CC(C)(C)CC4)CC3)cc2Oc2ccc3[nH]ccc3c2)cc1[N+](=O)[O-] [Example 179, 4-(4-{[2-(4-chlorophenyl)-4,4-dimethylcyclohex-1-en-1-yl]methyl}piperazin-1-yl)-2-(1H-indol-5-yloxy)-N-({4-[(2-methoxyethyl)amino]-3-nitrophenyl}sulfonyl)benzamide]
- EC50 [1]: 23.5 nM
- Ki [2, 4]: > 660 nM

Structure (SMILES): CC1(C)CCC(CN2CCN(c3ccc(C(=O)NS(=O)(=O)c4ccc(NC[C@@H]5CCCOC5)c([N+](=O)[O-])c4)c(Oc4ccc5[nH]ccc5c4)c3)CC2)=C(c2ccc(Cl)cc2)C1 [Example 180, 4-(4-{[2-(4-chlorophenyl)-4,4-dimethylcyclohex-1-en-1-yl]methyl}piperazin-1-yl)-2-(1H-indol-5-yloxy)-N-[(3-nitro-4-{[(3S)-tetrahydro-2H-pyran-3-ylmethyl]amino}phenyl)sulfonyl]benzamide]
- EC50 [1]: 20.5 nM
- Ki [2, 4]: > 660 nM

Structure (SMILES): CC1(C)CCC(CN2CCN(c3ccc(C(=O)NS(=O)(=O)c4ccc(NC[C@H]5CCCOC5)c([N+](=O)[O-])c4)c(Oc4ccc5[nH]ccc5c4)c3)CC2)=C(c2ccc(Cl)cc2)C1 [Example 181, 4-(4-{[2-(4-chlorophenyl)-4,4-dimethylcyclohex-1-en-1-yl]methyl}piperazin-1-yl)-2-(1H-indol-5-yloxy)-N-[(3-nitro-4-{[(3R)-tetrahydro-2H-pyran-3-ylmethyl]amino}phenyl)sulfonyl]benzamide]
- EC50 [1]: 33.5 nM
- Ki [2, 4]: > 660 nM

Structure (SMILES): CC1(C)CCC(CN2CCN(c3ccc(C(=O)NS(=O)(=O)c4ccc(NCC5CCCOC5)c([N+](=O)[O-])c4)c(Oc4ccc5[nH]ccc5c4)c3)CC2)=C(c2ccc(Cl)cc2)C1 (stereo not drawn) [Example 261, 4-(4-{[2-(4-chlorophenyl)-4,4-dimethylcyclohex-1-en-1-yl]methyl}piperazin-1-yl)-2-(1H-indol-5-yloxy)-N-({3-nitro-4-[(tetrahydro-2H-pyran-3-ylmethyl)amino]phenyl}sulfonyl)benzamide]
- EC50 [1]: 17 nM
- Ki [2, 4]: > 660 nM

Structure (SMILES): CC1(C)CCC(CN2CCN(c3ccc(C(=O)NS(=O)(=O)c4ccc(OCC5COCCO5)c([N+](=O)[O-])c4)c(Oc4ccc5[nH]ccc5c4)c3)CC2)=C(c2ccc(Cl)cc2)C1 (stereo not drawn) [Example 297, 4-(4-{[2-(4-chlorophenyl)-4,4-dimethylcyclohex-1-en-1-yl]methyl}piperazin-1-yl)-N-{[4-(1,4-dioxan-2-ylmethoxy)-3-nitrophenyl]sulfonyl}-2-(1H-indol-5-yloxy)benzamide]
- EC50 [1]: 13.2 nM
- Ki [2, 4]: 283 nM

Structure (SMILES): CC1(C)CCC(CN2CCN(c3ccc(C(=O)NS(=O)(=O)c4ccc(NCCOC(F)(F)F)c([N+](=O)[O-])c4)c(Oc4ccc5[nH]ccc5c4)c3)CC2)=C(c2ccc(Cl)cc2)C1 [Example 300, 4-(4-{[2-(4-chlorophenyl)-4,4-dimethylcyclohex-1-en-1-yl]methyl}piperazin-1-yl)-2-(1H-indol-5-yloxy)-N-[(3-nitro-4-{[2-(trifluoromethoxy)ethyl]amino}phenyl)sulfonyl]benzamide]
- EC50 [1]: 62.1 nM
- Ki [2, 4]: > 660 nM

Structure (SMILES): CC1(C)CCC(CN2CCN(c3ccc(C(=O)NS(=O)(=O)c4ccc(NCC5CCOCC5)c(S(=O)(=O)C(F)(F)F)c4)c(Oc4ccc5[nH]ccc5c4)c3)CC2)=C(c2ccc(Cl)cc2)C1 [Example 304, 4-(4-{[2-(4-chlorophenyl)-4,4-dimethylcyclohex-1-en-1-yl]methyl}piperazin-1-yl)-2-(1H-indol-5-yloxy)-N-({4-[(tetrahydro-2H-pyran-4-ylmethyl)amino]-3-[(trifluoromethyl)sulfonyl]phenyl}sulfonyl)benzamide]
- EC50 [1]: 415 nM
- Ki [2, 4]: > 660 nM

Structure (SMILES): COCCNc1ccc(S(=O)(=O)NC(=O)c2ccc(N3CCN(CC4=C(c5ccc(Cl)cc5)CC(C)(C)CC4)CC3)cc2Oc2ccc3[nH]ccc3c2)cc1S(=O)(=O)C(F)(F)F [Example 315, 4-(4-{[2-(4-chlorophenyl)-4,4-dimethylcyclohex-1-en-1-yl]methyl}piperazin-1-yl)-2-(1H-indol-5-yloxy)-N-({4-[(2-methoxyethyl)amino]-3-[(trifluoromethyl)sulfonyl]phenyl}sulfonyl)benzamide]
- EC50 [1]: > 500 nM
- Ki [2, 4]: > 660 nM

Structure (SMILES): O=C(NS(=O)(=O)c1ccc(NCC2CCOCC2)c([N+](=O)[O-])c1)c1ccc(N2CCN(Cc3ccccc3N3CC4CCC(CC4)C3)CC2)cc1Oc1ccccc1 [Example 474, 4-{4-[2-(3-azabicyclo[3.2.2]non-3-yl)benzyl]piperazin-1-yl}-N-({3-nitro-4-[(tetrahydro-2H-pyran-4-ylmethyl)amino]phenyl}sulfonyl)-2-phenoxybenzamide]
- EC50 [1]: 93.4 nM
- Ki [3]: 8.1 nM

Structure (SMILES): O=C(NS(=O)(=O)c1ccc(NCC2CCOCC2)c(S(=O)(=O)C(F)(F)F)c1)c1ccc(N2CCN(Cc3ccccc3N3CC4CCC(CC4)C3)CC2)cc1Oc1ccccc1 [Example 475, 4-{4-[2-(3-azabicyclo[3.2.2]non-3-yl)benzyl]piperazin-1-yl}-2-phenoxy-N-({4-[(tetrahydro-2H-pyran-4-ylmethyl)amino]-3-[(trifluoromethyl)sulfonyl]phenyl}sulfonyl)benzamide]
- EC50 [1]: 223 nM

Structure (SMILES): O=C(NS(=O)(=O)c1ccc(NCCCN2CCOCC2)c([N+](=O)[O-])c1)c1ccc(N2CCN(Cc3ccccc3N3CC4CCC(CC4)C3)CC2)cc1Oc1ccccc1 [Example 477, 4-{4-[2-(3-azabicyclo[3.2.2]non-3-yl)benzyl]piperazin-1-yl}-N-({4-[(3-morpholin-4-ylpropyl)amino]-3-nitrophenyl}sulfonyl)-2-phenoxybenzamide]
- EC50 [1]: > 1670 nM
- Ki [3]: 8.5 nM

Structure (SMILES): O=C(NS(=O)(=O)c1ccc(NCC2CCOCC2)c([N+](=O)[O-])c1)c1ccc(N2CCN(Cc3ccccc3C3=C[C@H]4C[C@@H]3C3CCCC34)CC2)cc1Oc1ccccc1 (stereo partly drawn) [Example 478, 4-(4-{2-[(4R,7S)-2,3,3a,4,7,7a-hexahydro-1H-4,7-methanoinden-5-yl]benzyl}piperazin-1-yl)-N-({3-nitro-4-[(tetrahydro-2H-pyran-4-ylmethyl)amino]phenyl}sulfonyl)-2-phenoxybenzamide]
- EC50 [1]: > 5000 nM

Structure (SMILES): CC1(C)CCC(CN2CCN(c3ccc(C(=O)NS(=O)(=O)c4cnc(OCC5CCc6nccn6C5)c(Cl)c4)c(Oc4cccc5[nH]ncc45)c3)CC2)=C(c2ccc(Cl)cc2)C1 (stereo not drawn) [Example 536, 4-(4-{[2-(4-chlorophenyl)-4,4-dimethylcyclohex-1-en-1-yl]methyl}piperazin-1-yl)-N-{[5-chloro-6-(5,6,7,8-tetrahydroimidazo[1,2-a]pyridin-6-ylmethoxy)pyridin-3-yl]sulfonyl}-2-(1H-indazol-4-yloxy)benzamide]
- Ki [2]: 22.2 nM
- Ki [3]: 0.025 nM
- Binding selectivity ratio (Bcl-XL Ki/Bcl-2 Ki) ([3]; TR-FRET, Bcl-XL Ki divided by Bcl-2 Ki): 886.1
